Structures can show the parent of a compound that is named as a salt.

As usually defined, the IC50 is the concentration at which inhibition is half-maximal.

The target of this test is T1, URAT-1 transporter (Homo sapiens, UniProt Q96S37).
T1 construct: expressed in transfected cells
T1 sequence (Q96S37 with tags, fused parts or gaps): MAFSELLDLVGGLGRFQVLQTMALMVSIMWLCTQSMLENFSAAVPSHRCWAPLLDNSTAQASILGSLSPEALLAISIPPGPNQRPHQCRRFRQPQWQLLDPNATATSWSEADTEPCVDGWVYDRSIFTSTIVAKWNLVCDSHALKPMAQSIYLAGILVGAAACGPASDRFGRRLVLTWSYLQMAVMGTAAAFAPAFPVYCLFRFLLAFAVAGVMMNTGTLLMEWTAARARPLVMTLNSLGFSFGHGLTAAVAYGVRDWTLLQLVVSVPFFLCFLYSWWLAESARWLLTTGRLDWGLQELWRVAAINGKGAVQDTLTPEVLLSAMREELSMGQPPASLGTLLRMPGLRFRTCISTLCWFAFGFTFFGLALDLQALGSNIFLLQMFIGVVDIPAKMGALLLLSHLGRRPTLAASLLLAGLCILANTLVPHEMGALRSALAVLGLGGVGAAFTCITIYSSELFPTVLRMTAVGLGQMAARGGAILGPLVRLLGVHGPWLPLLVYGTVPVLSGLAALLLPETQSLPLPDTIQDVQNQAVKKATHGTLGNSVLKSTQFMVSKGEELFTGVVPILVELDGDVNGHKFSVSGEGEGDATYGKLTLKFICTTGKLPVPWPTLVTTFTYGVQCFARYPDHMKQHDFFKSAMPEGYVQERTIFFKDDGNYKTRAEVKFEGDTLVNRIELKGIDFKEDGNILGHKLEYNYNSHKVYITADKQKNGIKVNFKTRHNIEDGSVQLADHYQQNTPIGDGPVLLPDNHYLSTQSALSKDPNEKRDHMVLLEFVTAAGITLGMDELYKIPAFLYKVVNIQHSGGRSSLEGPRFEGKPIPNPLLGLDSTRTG
Kind of test: URAT-1 inhibitor activity: [14C]-uric acid uptake into CHO-URAT1(L)GFP#8 (CHO#8) cells, scintillation proximity. It is filed as cell-based. The text has this: The nucleotide sequence for the long isoform of URAT1 (NM_144585) was C-terminally fused to that of enhanced green fluorescent protein (eGFP) (hereinafter referred to as URAT1(L)GFP). The combined sequence was codon-optimised and custom synthesized. The synthesized sequence was generated in pDONR221 Gateway entry vector (Invitrogen Life Technologies) prior to cloning in pLenti6.3/V5 Gateway destination vector (Invitrogen Life Technologies).
Lentiviral particles were generated according to ViraPower HiPerform expression system procedure (Invitrogen Life Technologies) and used to transduce CHO cells. Blasticidin selection enabled the generation of a stable clonal pool of cells, confirmed by expression of GFP and V5 epitope. The clonal pools were sorted using fluorescence-activated cell sorting (FACS) on the basis of GFP expression with the gating set at the top 50% of expression into single cells which were subsequently expanded to generate clonal lines. […] This cell line was used for all screening activities and is referred to as CHO-URAT1(L)GFP#8 or CHO#8.
The potency of the compounds of formula (I) as inhibitors of the URAT-1 transporter was determined as follows.
CHO#8 cells were cultured in cell line maintenance flasks in medium consisting of Dulbecco's modified Eagle medium (DMEM) with high glucose and sodium pyruvate (4.5 g of glucose per litre, Invitrogen Life Technologies), supplemented with heat-inactivated foetal bovine serum (FBC, 10% v/v), 1×NEAA (non-essential amino acids) and blasticidin (10 μg/ml). Cultures were grown in 175 cm^2 tissue culture flasks in a humidified incubator at approximately 37° C. in approximately 95% air/5% CO2. Near confluent CHO#8 cell cultures were harvested by trypsinisation, re-suspended in culture medium and the process was repeated once or twice weekly to provide sufficient cells for use.
Assay ready flasks were generated by the same method, except the cells were not cultured in blasticidin.
Assay ready frozen cells were generated by freezing 40,000,000 cells in 1 ml of FBS (without blasticidin) containing 10% DMSO per vial. One vial was sufficient for 5 assay plates. Each vial was thawed rapidly to 37° C., washed and re-suspended in pre-warmed culture medium for seeding onto assay plates.
CHO#8 cells were seeded onto Cytostar™ 96-well plates at a density of […]. The cells were cultured for 1 day at approximately 37° C. in a humidified incubator containing approximately 5% CO2 in air. After approximately 24 hours culture, cells were used for uptake experiments.
On the day of assay, culture medium was removed from the wells and the cells were washed once with 50 μL of chloride-containing buffer (136.7 mM NaCl, 5.36 mM KCl, 0.952 mM CaCl2, 0.441 mM KH2PO4, 0.812 mM MgSO4, 5.6 mM D-glucose, 0.383 mM Na2HPO4.2H2O, 10 mM HEPES, pH 7.4 with NaOH). The cells were pre-incubated with another 50 μL of chloride-containing buffer for one hour at approximately 37° C. in a humidified incubator containing approximately 5% CO2 in air.
Assay compound plates were prepared by diluting the compounds of formula (I) with chloride-free buffer (125 mM Na-gluconate, 4.8 mM K-gluconate, 1.3 mM Ca-gluconate, 1.2 mM KH2PO4, 1.2 mM MgSO4, 5.6 mM D-glucose, 25 mM HEPES, pH 7.4 with NaOH) in 100% DMSO to a final concentration of 1% DMSO. [^14C]-Uric Uric acid working stock was made by addition of radiolabeled compound to a final concentration of 120 nM in chloride-free buffer. In all wells, the final assay concentration of solvent (DMSO) was 0.25%; the final assay concentration of [^14C]-uric acid was 30 nM in chloride-free buffer and the final compound of formula (I) concentrations ranged from 0 to 10 μM.
After pre-incubation, cells were washed with 50 μL of chloride-free buffer and another 50 μL of chloride-free buffer was added. […]
In the case of `COc1cc(OC(F)(F)F)ccc1Oc1ccc(S(=O)(=O)Nc2ncns2)cc1C#N` [Example 27, 3-cyano-4-[2-methoxy-4-(trifluoromethoxy)phenoxy]-N-(1,2,4-thiadiazol-5-yl)benzenesulfonamide diethylamine salt], the IC50 is greater than 10000 nM.

`COc1ccc(OC(F)(F)F)cc1Oc1ccc(S(=O)(=O)Nc2ncns2)cc1C#N` [Example 28, 3-cyano-4-[2-methoxy-5-(trifluoromethoxy)phenoxy]-N-(1,2,4-thiadiazol-5-yl)benzenesulfonamide diethylamine salt] registered an IC50 greater than 7450 nM. For `COc1ccc(C(F)(F)F)cc1Oc1ccc(S(=O)(=O)Nc2ncns2)cc1C#N` [Example 29, 3-cyano-4-[2-methoxy-5-(trifluoromethyl)phenoxy]-N-(1,2,4-thiadiazol-5-yl)benzenesulfonamide diethylamine salt] the value was greater than 6080 nM; for `N#Cc1cc(S(=O)(=O)Nc2ncns2)ccc1Oc1ccc(Cl)cc1OC1CCC1` [Example 30, 4-[4-chloro-2-(cyclobutyloxy)phenoxy]-3-cyano-N-(1,2,4-thiadiazol-5-yl)benzenesulfonamide diethylamine salt], 609 nM. For `N#Cc1cc(S(=O)(=O)Nc2ncns2)ccc1Oc1cc(Cl)ccc1OC(F)F` [Example 31, 4-[5-chloro-2-(difluoromethoxy)phenoxy]-3-cyano-N-(1,2,4-thiadiazol-5-yl)benzenesulfonamide] the value was 2220 nM; for `N#Cc1cc(S(=O)(=O)Nc2ncns2)ccc1Oc1ccc(Cl)cc1OC(F)(F)F` [Example 32, 4-[4-chloro-2-(trifluoromethoxy)phenoxy]-3-cyano-N-(1,2,4-thiadiazol-5-yl)benzenesulfonamide diethylamine salt], 986 nM; for `N#Cc1cc(S(=O)(=O)Nc2ncns2)ccc1Oc1ccc(C(F)(F)F)cc1C(F)(F)F` [Example 33, 4-[2,4-bis(trifluoromethyl)phenoxy]-3-cyano-N-(1,2,4-thiadiazol-5-yl)benzenesulfonamide], 6190 nM. Regarding `N#Cc1cc(S(=O)(=O)Nc2ncns2)ccc1Oc1ccccc1C(F)(F)F` [Example 35, 3-cyano-4-(2-(trifluoromethyl)phenoxy)-N-(1,2,4-thiadiazol-5-yl)benzenesulfonamide], the IC50 was 4320 nM. In the case of `N#Cc1cc(S(=O)(=O)Nc2ncns2)ccc1Oc1ccccc1F` [Example 36, 3-cyano-4-(2-fluorophenoxy)-N-(1,2,4-thiadiazol-5-yl)benzenesulfonamide] it was 1940 nM; in that of `CC(C)(C)c1ccc(Oc2ccc(S(=O)(=O)Nc3ncns3)cc2C#N)c(Cl)c1` [Example 38, 4-(4-tert-butyl-2-chlorophenoxy)-3-cyano-N-(1,2,4-thiadiazol-5-yl)benzenesulfonamide], greater than 7100 nM; in that of `Cc1cc(F)ccc1Oc1ccc(S(=O)(=O)Nc2ncns2)cc1C#N` [Example 39, 3-cyano-4-(4-fluoro-2-methylphenoxy)-N-(1,2,4-thiadiazol-5-yl)benzenesulfonamide], 994 nM. In the case of `Cc1ccc(Cl)cc1Oc1ccc(S(=O)(=O)Nc2ncns2)cc1C#N` [Example 40, 4-(5-chloro-2-methylphenoxy)-3-cyano-N-(1,2,4-thiadiazol-5-yl)benzenesulfonamide] it was greater than 2920 nM; in that of `Cc1ccc(F)cc1Oc1ccc(S(=O)(=O)Nc2ncns2)cc1C#N` [Example 41, 3-cyano-4-(5-fluoro-2-methylphenoxy)-N-(1,2,4-thiadiazol-5-yl)benzenesulfonamide], 1350 nM. In the case of `Cc1cc(Cl)ccc1Oc1ccc(S(=O)(=O)Nc2ncns2)cc1C#N` [Example 42, 4-(4-chloro-2-methylphenoxy)-3-cyano-N-(1,2,4-thiadiazol-5-yl)benzenesulfonamide] it was greater than 3090 nM; in that of `N#Cc1cc(S(=O)(=O)Nc2ncns2)ccc1Oc1ccc(F)cc1F` [Example 43, 3-cyano-4-(2,4-difluorophenoxy)-N-(1,2,4-thiadiazol-5-yl)benzenesulfonamide], 877 nM.

`N#Cc1cc(S(=O)(=O)Nc2ncns2)ccc1Oc1cc(C(F)(F)F)ccc1F` [Example 44, 3-cyano-4-[2-fluoro-5-(trifluoromethyl)phenoxy]-N-(1,2,4-thiadiazol-5-yl)benzenesulfonamide] gave an IC50 of 4330 nM. For `N#Cc1cc(S(=O)(=O)Nc2ncns2)ccc1Oc1cc(C(F)(F)F)ccc1Cl` [Example 45, 4-[2-chloro-5-(trifluoromethyl)phenoxy]-3-cyano-N-(1,2,4-thiadiazol-5-yl)benzenesulfonamide] the value was 1020 nM; for `N#Cc1cc(S(=O)(=O)Nc2ncns2)ccc1Oc1ccc(F)cc1Cl` [Example 46, 4-(2-chloro-4-fluorophenoxy)-3-cyano-N-(1,2,4-thiadiazol-5-yl)benzenesulfonamide], 504 nM. For `N#Cc1cc(F)ccc1Oc1ccc(S(=O)(=O)Nc2ncns2)cc1C#N` [Example 47, 3-cyano-4-(2-cyano-4-fluorophenoxy)-N-(1,2,4-thiadiazol-5-yl)benzenesulfonamide] the value was 5390 nM; for `N#Cc1cc(S(=O)(=O)Nc2ncns2)ccc1Oc1cccc(Cl)c1F` [Example 48, 4-(3-chloro-2-fluorophenoxy)-3-cyano-N-(1,2,4-thiadiazol-5-yl)benzenesulfonamide], 1960 nM. For `N#Cc1cc(S(=O)(=O)Nc2ncns2)ccc1Oc1cccc(F)c1F` [Example 49, 3-cyano-4-(2,3-difluorophenoxy)-N-(1,2,4-thiadiazol-5-yl)benzenesulfonamide] the value was 1460 nM; for `N#Cc1cc(S(=O)(=O)Nc2ncns2)ccc1Oc1cc(F)ccc1F` [Example 50, 3-cyano-4-(2,5-difluorophenoxy)-N-(1,2,4-thiadiazol-5-yl)benzenesulfonamide], 2550 nM.

The compound `N#Cc1ccc(Oc2ccc(S(=O)(=O)Nc3ncns3)cc2C#N)c(F)c1` [Example 51, 3-cyano-4-(4-cyano-2-fluorophenoxy)-N-(1,2,4-thiadiazol-5-yl)benzenesulfonamide] came in with an IC50 of 2140 nM.

On to `N#Cc1cc(S(=O)(=O)Nc2ncns2)ccc1Oc1ccc(Cl)cc1F` [Example 52, 4-(4-chloro-2-fluorophenoxy)-3-cyano-N-(1,2,4-thiadiazol-5-yl)benzenesulfonamide], for which the IC50 amounted to 650 nM. For `N#Cc1cc(S(=O)(=O)Nc2ncns2)ccc1Oc1cccc(C(F)(F)F)c1F` [Example 53, 3-cyano-4-[2-fluoro-3-(trifluoromethyl)phenoxy]-N-(1,2,4-thiadiazol-5-yl)benzenesulfonamide] the value was 5240 nM. In the case of `N#Cc1cc(S(=O)(=O)Nc2ncns2)ccc1Oc1cccc(C(F)(F)F)c1` [Example 54, 3-cyano-N-(1,2,4-thiadiazol-5-yl)-4-[3-(trifluoromethyl)phenoxy]benzene sulfonamide] it was 2850 nM; in that of `N#Cc1cc(S(=O)(=O)Nc2ncns2)ccc1Oc1cc(Cl)ccc1Cl` [Example 55, 3-cyano-4-(2,5-dichlorophenoxy)-N-(1,2,4-thiadiazol-5-yl)benzenesulfonamide], 590 nM; in that of `CCc1cc(F)ccc1Oc1ccc(S(=O)(=O)Nc2ncns2)c(C#N)c1` [Example 56, 2-cyano-4-(2-ethyl-4-fluorophenoxy)-N-(1,2,4-thiadiazol-5-yl)benzenesulfonamide], 2120 nM.

The record behind these values is patent US20140315933A1, “CHEMICAL COMPOUNDS” (Pfizer Limited, priority 2013, published 2014).
